Counter-ions that a name gives are not always drawn.
Tests used:
HMESO mesothelioma cells = test: Cell viability study (crystal violet) in HMESO mesothelioma cells; type: cell-based; conditions: Homo sapiens, 48 h incubation, read-out: IC50 (Concentration of drug required to kill 50% of cells)
Method: (§1) FIG. 1: Cell viability assay data in Malignant Mesothelioma (MM) cells (HMESO cell line) treated with compound (1)-HCl or (5)-HCl. N=2 technical and 2 biological replicates conducted by 2 different lab technicians. All compounds went into solution in 100% DMSO. (5)-HCl precipitated at concentrations of ˜20-80 μM when added to complete tissue culture media.
Cell Lines were plated in 96-well plates (Corning, Kennebunk, ME, USA) at a density of 2500 cells per well. The following day, cells were treated with test compounds diluted in complete media followed by incubation for 48 h. Post-incubation cells were washed with PBS (Corning Cellgro, Manassas, VA, USA), fixed with 3.0% formaldehyde (Fisher BioReagents, Fair Lawn, NJ, USA) in PBS, and stained for 30 min with 0.1% crystal violet (Acros Organics, Fair Lawn, NJ, USA) in water. Crystal violet stain was removed, and plates were washed with H2O and allowed to dry. To quantify cell viability, plates were imaged using the Lionheart Plate reader (BioTek Instruments, Winooski, VT, USA) and/or analyzed by absorbance at 540 nm (crystal violet dye dissolved in 100% methanol) using the Synergy HTX plate reader (BioTek Instruments, Winooski, VT, USA). […]

PRX3 = biological target: T1, PRX3 (Homo sapiens, UniProt P30048); test: PRX3 crosslinking study (western blot) in Malignant Mesothelioma cells; type: cell-based; conditions: H-MESO cells treated 24 hours, reducing SDS-PAGE, anti-PRX3 western blot; TS at 2.5 or 5 μM
T1 construct: endogenous in cells; host or cells: H-MESO (HMESO) malignant mesothelioma cell line
T1 sequence (P30048 62-256): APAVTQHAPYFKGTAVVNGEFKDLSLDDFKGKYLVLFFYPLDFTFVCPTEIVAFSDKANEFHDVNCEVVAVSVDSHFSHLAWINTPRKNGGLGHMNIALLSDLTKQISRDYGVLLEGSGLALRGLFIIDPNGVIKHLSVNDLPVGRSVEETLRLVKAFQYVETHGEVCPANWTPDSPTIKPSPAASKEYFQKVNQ
Method: Malignant Mesothelioma (MM) cells (H-MESO cell line) were plated into 6-well plates in complete tissue culture media. Cells were allowed to adhere for 24 hours before being treated with indicated concentrations of thiostrepton (TS), (1) or (5) (DMSO Stocks) for 24 hours. Cell lysates were generated using standard RIPA buffer, protein concentrations were determined using a Bradford Assay and 20 μg of total protein per sample were separated by reducing SDS-Polyacrylamide Gel Electrophoresis. Proteins were transferred to a PVDF membrane, blocked with 5% Bovine Serum Albumin (BSA) for 1 hour and incubated with PRX3 primary antibody overnight at 4° C. in 1× Tris Buffered Saline with Tween (TBST). Membranes were washed 3× with 1×TBST and incubated with horseradish peroxidase conjugated (HRP) secondary antibody for 1 hour at room temperature. Membranes were washed 3× in 1×TBST and HRP signal was developed using Enhanced Chemiluminescence and visualized on a GE digital imager.

[1] = Behaviour of compounds in DMSO and in complete tissue culture media; type: physicochemical; conditions: from DMSO stock
Method: as §1

concentrations at which compound precipitated when added to complete tissue culture media [1] | Structure (SMILES) | IC50 (HMESO mesothelioma cells) | covalent PRX3 crosslinking (PRX3-X-PRX3) (PRX3)
 | C=C(NC(=O)C(=C)NC(=O)c1csc(-c2ccc(N)cc2)n1)C(N)=O [(1)-HCl, N-(3-((3-amino-3-oxoprop-1-en-2-yl)amino)-3-oxoprop-1-en-2-yl)-2-(4-aminophenyl)thiazole-4-carboxamide hydrochloride] | 748 µM | No PRX3-X-PRX3 crosslinking was observed
20 to 80 µM | C=C(NC(=O)c1csc(-c2ccc(N)cc2)n1)C(=O)NC(=C)C(=O)OC [(5)-HCl, Methyl 2-(2-(2-(4-aminophenyl)thiazole-4-carboxamido)acrylamido)acrylate hydrochloride] |  | Similar, yet less robust, results
 | C=C(NC(=O)C(=C)NC(=O)c1csc(C2=N[C@@H]3c4csc(n4)[C@H]4NC(=O)c5csc(n5)[C@H]([C@](C)(O)[C@@H](C)O)NC(=O)[C@H]5CSC(=N5)/C(=C/C)NC(=O)[C@H]([C@@H](C)O)NC(=O)c5csc(n5)[C@]3(CC2)NC(=O)[C@H](C)NC(=O)C(=C)NC(=O)[C@H](C)NC(=O)[C@H]([C@@H](C)CC)N[C@@H]2C=Cc3c([C@H](C)O)cc(nc3[C@H]2O)C(=O)O[C@@H]4C)n1)C(N)=O [TS, thiostrepton] | 1.01 µM | resulted in covalent PRX3 crosslinking
